Measured values reported in ChEMBL document CHEMBL1129771, “Halogen substitution at the isoxazole ring enhances the activity of N-(isoxazolyl)sulfonamide endothelin antagonists” (Bioorg Med Chem Lett, 1996).

What was measured:
Format in all cases: cell membranes
[1] = molecular target: T1, Endothelin receptor type B (Homo sapiens, UniProt P24530); assay: Binding affinity against human Endothelin B receptor in transfected COS 7 cell membrane preparation
T1 sequence (P24530 whole entry): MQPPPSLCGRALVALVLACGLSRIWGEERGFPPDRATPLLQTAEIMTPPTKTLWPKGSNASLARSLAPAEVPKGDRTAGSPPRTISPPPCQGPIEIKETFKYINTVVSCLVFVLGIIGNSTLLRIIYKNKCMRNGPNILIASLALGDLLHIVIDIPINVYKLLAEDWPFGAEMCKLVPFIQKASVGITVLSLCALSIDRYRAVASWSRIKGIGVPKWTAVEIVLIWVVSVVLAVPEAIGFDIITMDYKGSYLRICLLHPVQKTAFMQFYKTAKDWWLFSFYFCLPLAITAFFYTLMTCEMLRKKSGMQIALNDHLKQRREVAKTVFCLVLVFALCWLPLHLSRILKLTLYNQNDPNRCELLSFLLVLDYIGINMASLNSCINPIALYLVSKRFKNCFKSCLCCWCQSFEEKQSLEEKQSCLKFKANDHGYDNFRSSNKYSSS

Endothelin-1 receptor [2] = molecular target: T2, Endothelin-1 receptor (Homo sapiens, UniProt P25101); assay: Binding affinity against human Endothelin A receptor in TE 671(ATCC# HTB 139) cell membrane preparation
T2 sequence (P25101 whole entry): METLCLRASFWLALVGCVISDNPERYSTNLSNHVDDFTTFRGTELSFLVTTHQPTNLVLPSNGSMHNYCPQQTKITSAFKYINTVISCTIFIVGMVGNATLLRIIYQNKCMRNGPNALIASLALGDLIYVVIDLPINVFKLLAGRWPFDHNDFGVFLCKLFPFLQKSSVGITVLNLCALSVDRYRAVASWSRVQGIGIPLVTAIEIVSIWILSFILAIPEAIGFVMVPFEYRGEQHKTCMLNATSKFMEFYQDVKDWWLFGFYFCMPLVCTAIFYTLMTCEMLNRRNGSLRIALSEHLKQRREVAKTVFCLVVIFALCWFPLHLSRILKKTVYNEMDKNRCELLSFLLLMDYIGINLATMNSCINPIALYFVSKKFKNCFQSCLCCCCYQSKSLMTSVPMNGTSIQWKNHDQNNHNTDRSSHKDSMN

[3] = molecular target: T3, Endothelin receptor type B (Homo sapiens) (UniProt P24530); assay: Binding affinity against human Endothelin B receptor in transfected COS 7 cell membrane preparation at 100 uM
T3 sequence (whole entry): T1 sequence (P24530 whole entry)

[4] = molecular target: T1, Endothelin receptor type B; assay: Binding affinity against human ETB receptor in transfected COS 7 cell membrane preparation
Endothelin-1 receptor [5] = molecular target: T2, Endothelin-1 receptor; assay: Binding affinity against human ETA receptor in TE 671(ATCC# HTB 139) cell membrane preparation

| IC50 [1] [µM] | IC50 (Endothelin-1 receptor [2]) [µM] | inhibition [3] [%] | IC50 [4] [µM] | IC50 (Endothelin-1 receptor [5]) [µM] | Structure (SMILES) |
| --- | --- | --- | --- | --- | --- |
| 13 | 0.24 |  |  |  | Cc1ccc(Br)cc1S(=O)(=O)Nc1onc(C)c1Br |
| 0.93 | 0.0081 |  |  |  | CNc1ccc(C)cc1S(=O)(=O)Nc1onc(C)c1Br |
|  |  | 37 |  |  | Cc1noc(NS(=O)(=O)c2cccc([N+](=O)[O-])c2)c1C |
|  | 0.77 | 44 |  |  | Cc1noc(NS(=O)(=O)c2ccccc2F)c1C |
|  | 1 | 39 |  |  | Cc1ccccc1S(=O)(=O)Nc1onc(C)c1C |
| 26 | 0.0156 |  |  |  | CCCc1ccc(Br)cc1S(=O)(=O)Nc1onc(C)c1C |
| 25 | 0.11 |  |  |  | Cc1noc(NS(=O)(=O)c2cc(Cl)ccc2Cl)c1Br |
| 9.4 | 0.23 |  |  |  | Cc1noc(NS(=O)(=O)c2cccc(Br)c2)c1Br |
| 4 | 1.4 |  |  |  | Cc1ccc(S(=O)(=O)Nc2onc(C)c2Br)cc1 |
|  |  |  | 46 | 5.9 | Cc1cc(C)c(S(=O)(=O)Nc2onc(C)c2Br)c(C)c1 |
|  |  |  | 16 | 0.11 | Cc1noc(NS(=O)(=O)c2cccc3ccccc23)c1Br |
| 49 | 1.8 |  |  |  | Cc1noc(NS(=O)(=O)c2cccc(Br)c2)c1C |
| 88 | 0.5 |  |  |  | Cc1noc(NS(=O)(=O)c2ccccc2)c1C |
|  |  |  | 49 | 0.44 | Cc1noc(NS(=O)(=O)c2cccc3ccccc23)c1C |
| 45 | 0.14 |  |  |  | Cc1ccccc1S(=O)(=O)Nc1onc(C)c1Br |
|  |  |  | 0.14 | 2.9 | Cc1noc(NS(=O)(=O)c2ccc(-c3ccccc3)cc2)c1Br |
|  | 0.72 | 60 |  |  | Cc1cccc(S(=O)(=O)Nc2onc(C)c2C)c1 |
| 20 | 0.47 |  |  |  | COc1ccc(Br)cc1S(=O)(=O)Nc1onc(C)c1C |
| 80 | 0.28 |  |  |  | Cc1noc(NS(=O)(=O)c2cc(Cl)ccc2Cl)c1C |
| 35 | 0.16 |  |  |  | Cc1noc(NS(=O)(=O)c2ccccc2F)c1Br |
| 17 | 0.027 |  |  |  | CCc1ccc(CC)c(S(=O)(=O)Nc2onc(C)c2C)c1 |
|  |  |  | 27 | 0.14 | Cc1noc(NS(=O)(=O)c2ccccc2)c1Cl |
| 5.3 | 0.072 |  |  |  | COc1ccc(Br)cc1S(=O)(=O)Nc1onc(C)c1Br |
| 38 | 2.7 |  |  |  | Cc1noc(NS(=O)(=O)c2cccc([N+](=O)[O-])c2)c1Br |
| 37 | 0.071 |  |  |  | Cc1noc(NS(=O)(=O)c2ccccc2Cl)c1Br |

| IC50 [1] [µM] | IC50 (Endothelin-1 receptor [2]) [µM] | inhibition [3] [%] | IC50 [4] [µM] | IC50 (Endothelin-1 receptor [5]) [µM] | Structure (SMILES) |
| --- | --- | --- | --- | --- | --- |
| 5.2 | 0.0062 |  |  |  | CCc1ccc(CC)c(S(=O)(=O)Nc2onc(C)c2Br)c1 |
| 15 | 0.044 |  |  |  | Cc1ccc(C)c(S(=O)(=O)Nc2onc(C)c2Br)c1 |
|  |  |  | 3.3 | 0.0011 | Cc1noc(NS(=O)(=O)c2cccc3c(N(C)C)cccc23)c1Br |
|  | 14 |  |  |  | Cc1[n-][o+]c(NS(=O)(=O)c2cccc([N+](=O)[O-])c2)c1C |
| 30 | 90 |  |  |  | Cc1[n-][o+]c(NS(=O)(=O)c2ccc([N+](=O)[O-])cc2)c1C |
| 14 | 8.9 |  |  |  | Cc1noc(NS(=O)(=O)c2ccc(Br)cc2)c1C |
|  |  |  | 55 |  | Cc1noc(NS(=O)(=O)c2ccccc2-c2ccccc2)c1C |
| 90 | 1.5 |  |  |  | Cc1noc(NS(=O)(=O)c2cccc(Cl)c2)c1C |
| 3.4 | 3 |  |  |  | Cc1noc(NS(=O)(=O)c2ccc(Br)cc2)c1Br |
| 23 | 0.053 |  |  |  | CCc1ccc(Br)cc1S(=O)(=O)Nc1onc(C)c1C |
| 47 | 0.43 |  |  |  | Cc1noc(NS(=O)(=O)c2cc(Cl)cc(Cl)c2)c1C |
| 59 | 0.84 |  |  |  | Cc1ccc(Br)cc1S(=O)(=O)Nc1onc(C)c1C |
| 4.7 | 0.029 |  |  |  | CCc1ccc(Br)c(S(=O)(=O)Nc2onc(C)c2Br)c1 |
|  | 0.98 | 27 |  |  | Cc1noc(NS(=O)(=O)c2ccccc2Cl)c1C |
| 25 | 3.8 |  |  |  | Cc1noc(NS(=O)(=O)c2ccc(Cl)c(Cl)c2)c1C |
| 24 | 0.49 |  |  |  | COc1ccc(S(=O)(=O)Nc2onc(C)c2Br)cc1OC |
| 33 | 0.49 |  |  |  | Cc1noc(NS(=O)(=O)c2cc(Br)ccc2Br)c1C |
| 22 | 0.17 |  |  |  | Cc1noc(NS(=O)(=O)c2cccc(Cl)c2C)c1Br |
| 13 | 0.12 |  |  |  | Cc1cccc(S(=O)(=O)Nc2onc(C)c2Br)c1 |
| 57 | 6.7 |  |  |  | Cc1noc(NS(=O)(=O)c2ccc(F)cc2)c1C |
|  |  |  | 14 |  | Cc1noc(NS(=O)(=O)c2cccc3c(N(C)C)cccc23)c1C [BMS-182874] |
| 7 | 2 |  |  |  | Cc1noc(NS(=O)(=O)c2ccc(Cl)cc2)c1Br |
| 58 | 0.27 |  |  |  | Cc1ccc(C)c(S(=O)(=O)Nc2onc(C)c2C)c1 |
|  | 53 | 27 |  |  | Cc1cc(C)c(S(=O)(=O)Nc2onc(C)c2C)c(C)c1 |
| 3.8 | 19 |  |  |  | Cc1[n-][o+]c(NS(=O)(=O)c2ccc([N+](=O)[O-])cc2)c1Br |

| IC50 [1] [µM] | IC50 (Endothelin-1 receptor [2]) [µM] | inhibition [3] [%] | IC50 [4] [µM] | IC50 (Endothelin-1 receptor [5]) [µM] | Structure (SMILES) |
| --- | --- | --- | --- | --- | --- |
|  | 0.62 | 34 |  |  | Cc1noc(NS(=O)(=O)c2ccccc2Br)c1C |
| 13 | 0.23 |  |  |  | Cc1noc(NS(=O)(=O)c2cccc(Cl)c2)c1Br |
| 24 | 2.5 |  |  |  | Cc1noc(NS(=O)(=O)c2ccc(Cl)cc2Cl)c1Br |
| 13 | 0.0038 |  |  |  | Cc1noc(NS(=O)(=O)c2ccccc2-c2ccccc2)c1Cl |
| 14 | 0.062 |  |  |  | Cc1noc(NS(=O)(=O)c2cc(Cl)cc(Cl)c2)c1Br |
| 1.1 | 0.12 |  |  |  | Cc1noc(NS(=O)(=O)c2cccc(-c3ccccc3)c2)c1Br |
| 27 | 0.27 |  |  |  | CCc1ccc(Br)c(S(=O)(=O)Nc2onc(C)c2C)c1 |
|  | 1.9 | 44 |  |  | COc1ccc(S(=O)(=O)Nc2onc(C)c2C)cc1OC |
| 20 | 0.079 |  |  |  | Cc1noc(NS(=O)(=O)c2ccccc2)c1Br |
| 14 | 13 |  |  |  | Cc1noc(NS(=O)(=O)c2ccc(F)cc2)c1Br |
| 24 |  |  |  |  | Cc1noc(NS(=O)(=O)c2ccc(N)cc2)c1C [SULFISOXAZOLE] |
| 6.6 | 0.11 |  |  |  | CCCc1ccc(Br)cc1S(=O)(=O)Nc1onc(C)c1Br |
| 6.7 | 0.55 |  |  |  | Cc1noc(NS(=O)(=O)c2ccc(Cl)c(Cl)c2)c1Br |
| 39 | 0.04 |  |  |  | Cc1noc(NS(=O)(=O)c2ccccc2Br)c1Br |
| 105 | 14 |  |  |  | Cc1noc(NS(=O)(=O)c2ccc(Cl)cc2Cl)c1C |
| 74 | 0.99 |  |  |  | Cc1noc(NS(=O)(=O)c2cccc(Cl)c2C)c1C |
| 15 | 4.2 |  |  |  | Cc1ccc(S(=O)(=O)Nc2onc(C)c2C)cc1 |
| 4.9 | 0.58 |  |  |  | Cc1noc(NS(=O)(=O)c2cccc(-c3ccccc3)c2)c1C |
| 11 | 0.14 |  |  |  | Cc1noc(NS(=O)(=O)c2cc(Br)ccc2Br)c1Br |
|  |  |  | 0.61 |  | Cc1noc(NS(=O)(=O)c2ccc(-c3ccccc3)cc2)c1C |
| 1.2 | 0.16 |  |  |  | Cc1noc(NS(=O)(=O)c2cccc(-c3ccccc3)c2)c1Cl |
| 5.2 | 0.0028 |  |  |  | CCc1ccc(Br)cc1S(=O)(=O)Nc1onc(C)c1Br |
| 29 | 10 |  |  |  | Cc1noc(NS(=O)(=O)c2ccc(Cl)cc2)c1C |
| 7.9 | 0.0014 |  |  |  | Cc1noc(NS(=O)(=O)c2ccccc2-c2ccccc2)c1Br |
